Patent US11040981B2, “Pyrrolotriazine compounds and methods of inhibiting TAM kinases” (Syros Pharmaceuticals, Inc., priority 2017, dated 2021)

How the values were obtained:
MERTK = biological target: T1, MERTK (Homo sapiens, UniProt Q12866); test: TR-FRET kinase activity assay, MERTK; type: biochemical; settings: for IC50: TR-FRET activity assay, ATP at Km, 60 minutes, read-out: Mer IC50
T1 sequence (Q12866 21-999): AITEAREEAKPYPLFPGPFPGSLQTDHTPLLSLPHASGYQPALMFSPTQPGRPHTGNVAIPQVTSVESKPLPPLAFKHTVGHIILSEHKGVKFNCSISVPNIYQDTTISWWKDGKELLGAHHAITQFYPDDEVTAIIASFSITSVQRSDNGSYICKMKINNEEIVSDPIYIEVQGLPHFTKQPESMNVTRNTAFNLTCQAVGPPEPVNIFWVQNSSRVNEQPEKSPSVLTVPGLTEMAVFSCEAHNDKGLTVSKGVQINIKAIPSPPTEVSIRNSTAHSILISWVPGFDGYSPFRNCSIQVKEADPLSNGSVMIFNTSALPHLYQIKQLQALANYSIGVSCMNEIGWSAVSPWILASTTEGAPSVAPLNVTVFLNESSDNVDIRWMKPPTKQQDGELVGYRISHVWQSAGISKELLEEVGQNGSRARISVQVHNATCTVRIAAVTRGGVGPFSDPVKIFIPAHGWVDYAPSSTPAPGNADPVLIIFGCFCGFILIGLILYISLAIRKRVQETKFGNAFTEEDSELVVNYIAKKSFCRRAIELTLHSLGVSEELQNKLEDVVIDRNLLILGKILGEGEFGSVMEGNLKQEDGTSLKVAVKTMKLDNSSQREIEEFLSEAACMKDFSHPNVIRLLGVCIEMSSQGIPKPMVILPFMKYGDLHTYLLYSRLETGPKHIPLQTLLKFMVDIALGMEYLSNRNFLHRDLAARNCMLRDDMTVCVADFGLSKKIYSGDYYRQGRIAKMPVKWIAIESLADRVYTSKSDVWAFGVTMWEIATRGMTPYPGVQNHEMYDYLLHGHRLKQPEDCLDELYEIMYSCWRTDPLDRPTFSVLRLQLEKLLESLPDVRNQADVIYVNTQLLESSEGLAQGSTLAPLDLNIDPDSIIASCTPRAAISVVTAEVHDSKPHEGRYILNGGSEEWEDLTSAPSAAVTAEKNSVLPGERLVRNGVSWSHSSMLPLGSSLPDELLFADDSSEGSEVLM
Summary of the method: (§1)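 IC50 reflects the drop in TR-FRET between Eu anti-phosphotyrosine antibody and labelled peptide after a 60-minute room-temperature reaction. Buffer was 50 mM HEPES pH 7.5 with 10 mM MgCl2, 1 mM EGTA, 0.01% Brij 35 and 1 mM DTT, with ATP at Km per enzyme and EDTA quench.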

TYRO3 = biological target: T2, TYRO3 (Homo sapiens, UniProt Q06418); test: TR-FRET kinase activity assay, TYRO3; type: biochemical; settings: ATP at Km, 60 minutes
T2 sequence (Q06418 41-890): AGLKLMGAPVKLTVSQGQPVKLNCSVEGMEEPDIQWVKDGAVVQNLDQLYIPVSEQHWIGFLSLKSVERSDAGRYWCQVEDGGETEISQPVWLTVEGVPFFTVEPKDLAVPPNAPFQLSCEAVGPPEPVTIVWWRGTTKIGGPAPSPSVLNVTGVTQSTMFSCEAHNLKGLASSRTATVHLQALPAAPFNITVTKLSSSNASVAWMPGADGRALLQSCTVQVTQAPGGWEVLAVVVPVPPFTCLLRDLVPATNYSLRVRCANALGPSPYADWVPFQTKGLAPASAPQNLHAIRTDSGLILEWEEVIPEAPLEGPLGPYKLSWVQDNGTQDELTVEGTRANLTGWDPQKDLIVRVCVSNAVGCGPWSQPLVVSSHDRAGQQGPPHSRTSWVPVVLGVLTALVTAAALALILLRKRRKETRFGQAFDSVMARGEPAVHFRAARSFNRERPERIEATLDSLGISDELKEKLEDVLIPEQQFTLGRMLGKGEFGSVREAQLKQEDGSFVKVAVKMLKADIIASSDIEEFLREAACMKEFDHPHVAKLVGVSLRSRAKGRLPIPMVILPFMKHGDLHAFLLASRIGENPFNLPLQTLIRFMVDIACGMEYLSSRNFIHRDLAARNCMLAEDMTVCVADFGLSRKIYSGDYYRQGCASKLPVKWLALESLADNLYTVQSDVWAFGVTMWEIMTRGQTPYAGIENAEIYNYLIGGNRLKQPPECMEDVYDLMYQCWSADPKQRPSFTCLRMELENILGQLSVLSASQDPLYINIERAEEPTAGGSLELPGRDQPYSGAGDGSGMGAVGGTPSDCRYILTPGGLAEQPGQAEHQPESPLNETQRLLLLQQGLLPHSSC
Summary of the method: as §1

[1] = ratio calculated as FLT3 IC50/Mer IC50
[2] = ratio of Mer to FLT3: FLT3 IC50/Mer IC50

Row | Compound | IC50 (MERTK) [nM] | FLT3/Mer ratio (FLT3 IC50/Mer IC50) (MERTK; [1]) | IC50 (TYRO3) [nM] | FLT3/Mer ratio (FLT3 IC50/Mer IC50) (MERTK; [2])
1 | CC(CC1COC1)Nc1ncc2c(-c3cnn(C4COC4)c3)cc([C@H]3CC[C@H](O)CC3)n2n1 (mixture of isomers) [Compound 447] | 1000 to 10000 | + (“+” represents a ratio of >2.0 and <10) | 1000 to 10000 | –
2 | CC[C@H](C)Nc1ncc2c(-c3ccc(CN4CCN(C)CC4)cc3)cc([C@H]3CC[C@](C)(O)CC3)n2n1 (relative stereo) [Compound 132, (trans)-4-(2-((S)-sec-butylamino)-5-(4-((4-methylpiperazin-1-yl)methyl)phenyl)pyrrolo[2,1-f][1,2,4]triazin-7-yl)-1-methylcyclohexanol] | ≤ 100 | – | ≤ 100 | ++ (“++” represents a ratio of between 10 and 100)
3 | COC[C@H](C)Nc1ncc2c(-c3cnn(C4COC4)c3)cc([C@H]3CC[C@](C)(O)CC3)n2n1 (single isomer, unassigned) [Compound 452] | ≤ 100 | +++ (“+++” represents a ratio of >100) | ≤ 100 | –
4 | COC[C@H](C)Nc1ncc2c(-c3cnn(C4COC4)c3)cc([C@H]3CC[C@@](C)(O)CC3)n2n1 (single isomer, unassigned) [Compound 453] | ≤ 100 | +++ (“+++” represents a ratio of >100) | ≤ 100 | –
5 | CC[C@H](C)Nc1ncc2c(-c3ccc(CN4CCN(C)CC4)cc3)cc(C3CCC(C)(O)CC3)n2n1 (stereo in doubt) [Compound 131, (cis)-4-(2-((S)-sec-butylamino)-5-(4-((4-methylpiperazin-1-yl)methyl)phenyl)pyrrolo[2,1-f][1,2,4]triazin-7-yl)-1-methylcyclohexanol] | ≤ 100 | – | ≤ 100 | +++ (“+++” represents a ratio of >100)
6 | CCC1(Nc2ncc3c(-c4ccc(CN5CCN(C)CC5)cc4)cc([C@H]4CC[C@H](O)CC4)n3n2)CCC1 [Compound 126] | ≤ 100 | – | 100 to 1000 | ++ (“++” represents a ratio of between 10 and 100)
7 | CCCCC[C@H](C)Nc1ncc2c([C@H]3CC[C@@H](C(=O)N4CCN(C)CC4)CC3)cc([C@H]3CC[C@H](O)CC3)n2n1 [Compound 127] | ≤ 100 | – | ≤ 100 | +++ (“+++” represents a ratio of >100)
8 | CC[C@H](C)Nc1ncc2c(C3=CCOCC3)cc([C@H]3CC[C@H](O)CC3)n2n1 [Compound 128] | ≤ 100 | – | ≤ 100 | ++ (“++” represents a ratio of between 10 and 100)
9 | CC[C@H](C)Nc1ncc2c(C3CCOCC3)cc([C@H]3CC[C@H](O)CC3)n2n1 [Compound 129, (trans)-4-(2-((S)-sec-butylamino)-5-(tetrahydro-2H-pyran-4-yl)pyrrolo[2,1-f][1,2,4]triazin-7-yl)cyclohexanol] | ≤ 100 | – | ≤ 100 | +++ (“+++” represents a ratio of >100)
10 | CC[C@H](C)Nc1ncc2c(C3=CCNCC3)cc([C@H]3CC[C@H](O)CC3)n2n1 [Compound 130] | ≤ 100 | – | ≤ 100 | +++ (“+++” represents a ratio of >100)
11 | COC[C@H](C)Nc1ncc2c(-c3ccc(CC(=O)O)cc3)cc([C@H]3CC[C@H](O)CC3)n2n1 [Compound 133] | ≤ 100 | – | ≤ 100 | +++ (“+++” represents a ratio of >100)
12 | COC[C@H](C)Nc1ncc2c(-c3ccc(-c4nn[nH]n4)cc3)cc([C@H]3CC[C@H](O)CC3)n2n1 [Compound 134] | ≤ 100 | – | ≤ 100 | +++ (“+++” represents a ratio of >100)
13 | COC[C@H](C)Nc1ncc2c(-c3ccnc(N4CCOCC4=O)c3)cc([C@H]3CC[C@H](O)CC3)n2n1 [Compound 423] | ≤ 100 | +++ (“+++” represents a ratio of >100) | ≤ 100 | –
